Assay results as given in PubChem BioAssay (NCI).
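Cells were grown in 96-well plates and exposed to each compound for 48 hours at five concentrations; endpoints were interpolated linearly between bracketing concentrations, or set to the highest concentration if not reached. TGI: concentration producing complete growth inhibition.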

Experiments:
Assay in all cases: NCI tumour cell line growth inhibition, 48 h
[1] = test system: 786-0 renal
[2] = test system: A549 NSCLC
[3] = test system: ACHN renal
[4] = test system: BT-549 breast
[5] = test system: CAKI-1 renal
[6] = test system: CCRF-CEM leukemia
[7] = test system: COLO 205 colon
[8] = test system: DU-145 prostate
[9] = test system: EKVX NSCLC
[10] = test system: HCC-2998 colon
[11] = test system: HCT-116 colon
[12] = test system: HCT-15 colon
[13] = test system: HOP-62 NSCLC
[14] = test system: HOP-92 NSCLC
[15] = test system: HS 578T breast
[16] = test system: HT29 colon
[17] = test system: K-562 leukemia
[18] = test system: KM12 colon
[19] = test system: LOX IMVI melanoma
[20] = test system: M14 melanoma
[21] = test system: MALME-3M melanoma
[22] = test system: MCF7 breast
[23] = test system: MDA-MB-231 breast
[24] = test system: MDA-MB-435
[25] = test system: MDA-N
[26] = test system: MOLT-4 leukemia
[27] = test system: NCI-H226 lung
[28] = test system: NCI-H23 lung
[29] = test system: NCI-H522 lung
[30] = test system: NCI/ADR-RES ovarian
[31] = test system: OVCAR-3 ovarian
[32] = test system: OVCAR-4 ovarian
[33] = test system: OVCAR-5 ovarian
[34] = test system: OVCAR-8 ovarian
[35] = test system: PC-3 prostate
[36] = test system: RPMI-8226 leukemia
[37] = test system: RXF 393 renal
[38] = test system: SF-268 CNS
[39] = test system: SF-295 CNS
[40] = test system: SF-539 CNS
[41] = test system: SK-MEL-2 melanoma
[42] = test system: SK-MEL-28 melanoma
[43] = test system: SK-OV-3 ovarian
[44] = test system: SN12C renal
[45] = test system: SNB-19 CNS
[46] = test system: SNB-75 CNS
[47] = test system: SR leukemia
[48] = test system: SW-620 colon
[49] = test system: T-47D breast
[50] = test system: TK-10 renal
[51] = test system: U251 CNS
[52] = test system: UACC-257 melanoma
[53] = test system: UACC-62 melanoma
[54] = test system: UO-31 renal
[55] = test system: A498 renal
[56] = test system: IGROV1 ovarian
[57] = test system: NCI-H460 lung
[58] = test system: SK-MEL-5 melanoma

Nc1ncnc2c1N=C(c1ccccc1)CC(c1ccccc1)N2 (configuration not stated)
TGI [1]: > 100 µM
TGI [2]: > 100 µM
TGI [3]: > 100 µM
TGI [4]: > 100 µM
TGI [5]: > 100 µM
TGI [6]: > 100 µM
TGI [7]: > 100 µM
TGI [8]: > 100 µM
TGI [9]: > 100 µM
TGI [10]: > 100 µM
TGI [11]: > 100 µM
TGI [12]: > 100 µM
TGI [13]: > 100 µM
TGI [14]: > 100 µM
TGI [15]: > 100 µM
TGI [16]: > 100 µM
TGI [17]: > 100 µM
TGI [18]: > 100 µM
TGI [19]: > 100 µM
TGI [20]: > 100 µM
TGI [21]: > 100 µM
TGI [22]: > 100 µM
TGI [23]: > 100 µM
TGI [24]: > 100 µM
TGI [25]: > 100 µM
TGI [26]: > 100 µM
TGI [27]: > 100 µM
TGI [28]: > 100 µM
TGI [29]: > 100 µM
TGI [30]: > 100 µM
TGI [31]: > 100 µM
TGI [32]: > 100 µM
TGI [33]: > 100 µM
TGI [34]: > 100 µM
TGI [35]: > 100 µM
TGI [36]: > 100 µM
TGI [37]: > 100 µM
TGI [38]: > 100 µM
TGI [39]: > 100 µM
TGI [40]: > 100 µM
TGI [41]: > 100 µM
TGI [42]: > 100 µM
TGI [43]: > 100 µM
TGI [44]: > 100 µM
TGI [45]: > 100 µM
TGI [46]: > 100 µM
TGI [47]: > 100 µM
TGI [48]: > 100 µM
TGI [49]: > 100 µM
TGI [50]: > 100 µM
TGI [51]: > 100 µM
TGI [52]: > 100 µM
TGI [53]: > 100 µM
TGI [54]: > 100 µM

CCCCCC(/C=C/[C@@H]1[C@@H](C(O)CCCCCC(=O)OC)C(=O)C[C@H]1O[Si](C)(C)C(C)(C)C)OCOCCOC (some centres not stated)
TGI [1]: 31.6 µM
TGI [55]: 42.7 µM
TGI [2]: > 68.2 µM
TGI [3]: 28.6 µM
TGI [4]: 24.8 µM
TGI [5]: 32.2 µM
TGI [6]: > 24.5 µM
TGI [7]: 49.6 µM
TGI [8]: 36.9 µM
TGI [9]: 37.6 µM
TGI [10]: > 57 µM
TGI [11]: 16.1 µM
TGI [12]: 27.5 µM
TGI [13]: 31.6 µM
TGI [14]: 46.2 µM
TGI [15]: 27.2 µM
TGI [16]: 18.8 µM
TGI [56]: 20.9 µM
TGI [17]: > 52 µM
TGI [18]: 16.1 µM
TGI [19]: 14.5 µM
TGI [20]: 37.1 µM
TGI [21]: 30.6 µM
TGI [22]: > 47 µM
TGI [23]: 44.1 µM
TGI [24]: 27.9 µM
TGI [25]: 24.4 µM
TGI [26]: 4.87 µM
TGI [27]: 34.9 µM
TGI [28]: 32.3 µM
TGI [57]: > 100 µM
TGI [29]: 14.5 µM
TGI [30]: 51.8 µM
TGI [31]: 28.1 µM
TGI [32]: 40.9 µM
TGI [33]: 48 µM
TGI [34]: 42.8 µM
TGI [35]: 27.4 µM
TGI [36]: > 25.7 µM
TGI [37]: 39.8 µM
TGI [38]: 28.4 µM
TGI [39]: 32.6 µM
TGI [40]: 31 µM
TGI [41]: 32.4 µM
TGI [42]: 33.3 µM
TGI [58]: 30.5 µM
TGI [43]: 34 µM
TGI [44]: 45.7 µM
TGI [45]: 29 µM
TGI [46]: 22.2 µM
TGI [47]: > 31.6 µM
TGI [48]: 29.3 µM
TGI [49]: 51.8 µM
TGI [50]: 31.3 µM
TGI [51]: 27.4 µM
TGI [52]: 21.9 µM
TGI [53]: 27.5 µM
TGI [54]: 28.9 µM
